Literature values, collected in patent US20260207579A1, “VITAMIN B SUPPLEMENTATION TO TREAT PITUITARY PARS INTERMEDIA DYSFUNCTION (PPID) IN EQUIDS” (MARS INCORPORATED, priority 2022, published 2026).
Where a name gives a salt, the structure may show the parent alone. Each block holds one molecule with its values, some of them ahead of it.

Legend:
brain cells = settings: species other than the horse
[1] = 3 g/day, mares, mean BW of ~500 kg
dopamine production = settings: over the long term, mice
[2] = 5 g/day, horses
[3] = test system: adult Thoroughbred horses; settings: 3 g/day for 6 weeks, exercising adult Thoroughbred horses likely around 500 kg
dementia = settings: humans with dementia and concurrent vitamin B12 deficiency

- bioavailability of NAD+ precursors in the follicular fluid [1]: increased
- plasma concentrations of NAD+ precursors [1]: no apparent increase
Molecule: O=C(O)c1cccnc1 [NA, nicotinic acid]
- intracellular NAD+ levels (brain cells): increase

Molecule: NC(=O)c1ccc[n+]([C@@H]2O[C@H](CO)[C@@H](O)[C@H]2O)c1 [nicotinamide riboside]
- dopamine production (dopamine production): may downregulate dopamine production

Molecule: N[C@@H](Cc1c[nH]c2ccccc12)C(=O)O [Tryptophan, tryptophan]
- behavioural effects (horses): both excitatory and sedative effects
- toxicity (horses; high doses): hemolytic anemia and symptoms of respiratory distress

- plasma and urine concentrations of NAD+ precursors [2]: increases
Molecule: O=C(O)c1cccnc1 [niacin]
- adverse effects [3]: no measured adverse effects
- benefits as putative ergogenic aid [3]: no apparent benefits

Molecule: vitamin B12
- effect of supplementation (dementia): beneficial

Molecule: CCCN1C[C@H](CSC)C[C@@H]2c3cccc4[nH]cc(c34)C[C@H]21 [pergolide mesylate]
- clinical outcome in PPID (PPID): clinical improvement
